Measured values as given in patent publication US9999222B2, “Herbicidal combination comprising azines” (BASF SE, priority 2014, dated 2018).
Like-named read-outs stand apart in the source and are kept apart here.

Experiments:
Assay in all cases: Greenhouse test, pre-emergence treatment
ERICA [1] = format: in vivo; conditions: 480 h, read-out: observed % activity 20 DAT
CENCY [2] = format: in vivo, Centaurea cyanus
DIGSA [3] = format: in vivo; conditions: Digitaria sanguinalis, 480 h, read-out: observed % activity 20 DAT
IPOHE = format: in vivo, Ipomoea hederacea
Method in brief: (§1)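 Seeds were sown in loamy sand with approximately 3.0% humus, then sprayed at once with actives suspended or emulsified in water. Pots were watered, hooded until rooting, held at 10-25° C. or 20-35° C. by species for 2 to 4 weeks, and scored 0 (no damage) to 100 (no emergence/complete destruction).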

SIDRH = format: in vivo, Sida rhombifolia; conditions: pre-emergence
Method in brief: as §1

DIGSA [4] = format: in vivo, Digitaria sanguinalis; conditions: 4 g ai/ha
CENCY [5] = format: in vivo; conditions: individual
CENCY [6] = format: in vivo
SETVI = format: in vivo, Setaria viridis
From the text: The culture containers used were plastic flowerpots containing loamy sand with approximately 3.0% of humus as the substrate. The seeds of the test plants were sown separately for each species.
For the pre-emergence treatment, the active ingredients, which had been suspended or emulsified in water, were applied directly after sowing by means of finely distributing nozzles. The containers were irrigated gently to promote germination and growth and subsequently covered with transparent plastic hoods until the plants had rooted. This cover caused uniform germination of the test plants, unless this had been impaired by the active ingredients.
Depending on the species, the plants were kept at 10-25° C. or 20-35° C., respectively.
The test period extended over 2 to 4 weeks. During this time, the plants were tended, and their response to the individual treatments was evaluated.
Evaluation was carried out using a scale from 0 to 100. 100 means no emergence of the plants, or complete destruction of at least the aerial moieties, and 0 means no damage, or normal course of growth. A moderate herbicidal activity is given at values of at least 60, a good herbicidal activity is given at values of at least 70, and a very good herbicidal activity is given at values of at least 85.
The respective stated components a and b, and if appropriate, c were formulated as a 10% by weight strength emulsion concentrate and, with addition of the amount of solvent system, introduced into the spray liquor used for applying the active compound.
In the examples, the solvent used was water.
In the examples below, using the method of S. R. Colby (1967) “Calculating synergistic and antagonistic responses of herbicide combinations”, Weeds 15, p. 22ff., the value E, which is expected if the activity of the individual active compounds is only additive, was calculated. E=X+Y−(X·Y/100) where • X=percent activity using active compound a at an application rate A; • Y=percent activity using active compound b at an application rate B; • E=expected activity (in %) by a+b at application rates A+B.
If the value found experimentally is higher than the value E calculated according to Colby, a synergistic effect is present.

ERICA [7] = format: in vivo, Erigeron canadensis
[8] = Ipomoea hederacea, 480 h, 4 g ai/ha, read-out: observed % activity 20 DAT
[9] = Sida rhombifolia, 480 h, 8 g ai/ha, read-out: observed % activity 20 DAT

Nc1nc(Nc2c(F)c(F)cc(F)c2F)nc(C2(F)CCCC2)n1 [compound 9, 6-(1-fluorocyclopentyl)-N4-(2,3,5,6-tetrafluorophenyl)-1,3,5-triazine-2,4-diamine]
inhibition at 4 g/ha (ERICA [1]; 4 g ai/ha): 98%
inhibition at 8 g/ha (ERICA [1]; 8 g ai/ha): 98%
observed % activity 20 DAT (CENCY [2]; 4 g ai/ha): 40%
observed % activity 20 DAT (CENCY [2]; 8 g ai/ha): 20%
inhibition at 2 g/ha (DIGSA [3]; 2 g ai/ha): 75%
inhibition at 4 g/ha (DIGSA [3]; 4 g ai/ha): 60%
observed % activity 20 DAT (IPOHE; 16 g ai/ha): 15%
observed % activity 20 DAT (IPOHE; IPOHE, individual, use rate 16 g ai/ha): 15%
inhibition at 4 g/ha (IPOHE; [8]): 0%
pest or weed control at 4 g/ha (IPOHE; [8]): 0%
inhibition at 16 g/ha (IPOHE; Ipomoea hederacea, 480 h, 16 g ai/ha, read-out: observed % activity 20 DAT): 10%
inhibition at 16 g/ha (IPOHE; Ipomoea hederacea, 480 h, IPOHE, individual, use rate 16 g ai/ha, read-out: observed % activity 20 DAT): 10%
observed % activity 20 DAT (SIDRH; SIDRH, individual, use rate 8 g ai/ha): 15%
observed % activity 20 DAT (SIDRH; SIDRH, individual, use rate 16 g ai/ha): 55%
pest or weed control at 4 g/ha (SIDRH; Sida rhombifolia, 480 h, 4 g ai/ha, read-out: observed % activity 20 DAT): 10%
pest or weed control at 8 g/ha (SIDRH; [9]): 10%
inhibition at 8 g/ha (SIDRH; Sida rhombifolia, 480 h, SIDRH, individual, use rate 8 g ai/ha, read-out: observed % activity 20 DAT): 25%
inhibition at 8 g/ha (SIDRH; [9]): 25%
inhibition at 16 g/ha (SIDRH; Sida rhombifolia, 480 h, 16 g ai/ha, read-out: observed % activity 20 DAT): 30%
observed % activity 20 DAT (DIGSA [4]): 80%
inhibition at 8 g/ha (CENCY [5]; 480 h, use rate 8 g ai/ha, read-out: observed % activity 20 DAT): 20%
inhibition at 16 g/ha (CENCY [5]; 480 h, use rate 16 g ai/ha, read-out: observed % activity 20 DAT): 15%
observed % activity 20 DAT (CENCY [5]; use rate 8 g ai/ha): 35%
observed % activity 20 DAT (CENCY [6]; 8 g ai/ha): 35%
inhibition at 4 g/ha (CENCY [6]; 480 h, 4 g ai/ha, read-out: observed % activity 20 DAT): 40%
inhibition at 8 g/ha (CENCY [6]; 480 h, 8 g ai/ha, read-out: observed % activity 20 DAT): 20%
inhibition at 16 g/ha (CENCY [6]; 480 h, 16 g ai/ha, read-out: observed % activity 20 DAT): 10%
observed % activity 20 DAT (SETVI; 2 g ai/ha): 90%
observed % activity 20 DAT (SETVI; 4 g ai/ha): 90%
inhibition at 2 g/ha (SETVI; Setaria viridis, 480 h, 2 g ai/ha, read-out: observed % activity 20 DAT): 70%
inhibition at 4 g/ha (SETVI; Setaria viridis, 480 h, 4 g ai/ha, read-out: observed % activity 20 DAT): 80%
observed % activity 20 DAT (ERICA [7]; 4 g ai/ha): 98%
observed % activity 20 DAT (ERICA [7]; 8 g ai/ha): 98%
